≈ marks a conversion by molar mass, not a printed value. Read-outs that look alike come from different tables or passages of the source. Where no end group is shown, it is not given here.
What was measured:
[1] = system: E. faecium MUT_147 (ΔliaFSR ΔliaX pGhost9 empty vector); settings: antibiotic strips on agar, CM17 + 5 μg/mL Em, mean of three biological replicates
Procedure: (§1) The sensitivity of the mutants to AurA53- and EntL50-like bacteriocins, nisin, RAM, GRA, carbenicillin, and chlortetracycline was determined using microtiter plates with serial 2-fold dilutions of the antimicrobials, as described previously ([41]). The lowest concentration of the agent reducing visible bacterial growth by at least 50% was taken as the MIC (MIC50) value. The sensitivity to other antibiotics was determined using agar plates with antibiotic strips as described previously ([12]). The antibiotic concentration at the point where the inhibition zone intersected the strip was taken as the MIC value. The antibiotic susceptibilities of E. faecium LMGT 2783, MUT_130 to MUT_132, MUT_136 to MUT_139, and MUT_140 and MUT_141 were tested in ISO-BHI medium (Oxoid) supplemented with 5 μg/mL Em when appropriate, while those of E. faecium MUT_142 to MUT_149 were tested in CM17 medium supplemented with 5 μg/mL Em. To study the effects of NaCl and sodium dodecyl sulfate (SDS) on bacterial growth, saturated overnight cultures of E. faecium were used for inoculation at a dilution of 1:100 in BHI medium with serial dilutions of these compounds at concentrations of 0.5 to 10% (wt/vol) and 3.0 × 10^−2 to 2.5 × 10^−3% (wt/vol), respectively. Bacterial cultures were incubated at 37°C without shaking for 24 h in a Bioscreen turbidometric automated analyzer (Bioscreen C, Growth Curves Ltd., Finland) in Honeycomb 100-well plates (Oy Growth Curves Ab Ltd.). […] The assays were made at least in triplicate.

[2] = system: E. faecium MUT_144 (ΔliaFSR pGh:PptcB:liaS); settings: antibiotic strips on agar, CM17 + 5 μg/mL Em, mean of three biological replicates
Procedure: as §1

[3] = system: E. faecium MUT_146 (ΔliaFSR pGh:PptcB:liaSR); settings: antibiotic strips on agar, CM17 + 5 μg/mL Em, mean of three biological replicates
Procedure: as §1

[4] = system: E. faecium MUT_145 (ΔliaFSR pGh:PptcB:liaR); settings: antibiotic strips on agar, CM17 + 5 μg/mL Em, mean of three biological replicates
Procedure: as §1

[5] = system: E. faecium MUT_148 (ΔliaFSR ΔliaX pGh:PptcB:liaS); settings: antibiotic strips on agar, CM17 + 5 μg/mL Em, mean of three biological replicates
Procedure: as §1

[6] = system: E. faecium MUT_149 (ΔliaFSR ΔliaX pGh:PptcB:liaR); settings: antibiotic strips on agar, CM17 + 5 μg/mL Em, mean of three biological replicates
Procedure: as §1

[7] = system: E. faecium MUT_143 (ΔliaFSR pGhost9 empty vector); settings: antibiotic strips on agar, CM17 + 5 μg/mL Em, mean of three biological replicates
Procedure: as §1

[8] = system: E. faecium MUT_150 (ΔliaFSR ΔliaX pGh:PptcB:liaSR); settings: antibiotic strips on agar, CM17 + 5 μg/mL Em, mean of three biological replicates
Procedure: as §1

[9] = system: spontaneous E. faecium BHT-B-resistant mutants
Procedure: Spontaneous resistant mutants were obtained by growing E. faecium LMGT 2783 in the presence of the bacteriocin as described previously ([41]). […] The stability of changes in BHT-B sensitivity was determined by continuously subculturing mutants in BHI broth without bacteriocin. Subcultures were formed at 24-h intervals, and sensitivity to BHT-B was validated after 1, 5, and 10 passages with simultaneous control of culture purity.
as §1

[10] = system: E. faecium MUT_140 (liaFSR deletion) and MUT_141 (liaFSR plus liaX deletion); test: Susceptibility of deletion strains as a group (microtiter MIC50 or antibiotic strips); assay type: cell-based, Enterococcus faecium; settings: for Fold increase in sensitivity relative to WT: both deletion strains MUT_140 and MUT_141; for Effect of the deletions on sensitivity (in words): both deletion strains MUT_140 and MUT_141 compared with WT
Procedure: as §1

[11] = system: E. faecium LMGT 2783 (WT); test: microbe, parasite or virus in culture
Procedure: as §1

[12] = system: E. faecium LMGT 2783 and its spontaneous mutants; test: Effect of NaCl and SDS on bacterial growth (Bioscreen); assay type: cell-based, Enterococcus faecium; settings: WT LMGT 2783 and all mutants, BHI, 37°C, 24 h, inoculum 1:100, lowest concentration (wt/vol) with at least 50% growth inhibition, at least triplicate
Procedure: (§2) The sensitivity of the mutants to AurA53- and EntL50-like bacteriocins, nisin, RAM, GRA, carbenicillin, and chlortetracycline was determined using microtiter plates with serial 2-fold dilutions of the antimicrobials, as described previously ([41]). The lowest concentration of the agent reducing visible bacterial growth by at least 50% was taken as the MIC (MIC50) value. The sensitivity to other antibiotics was determined using agar plates with antibiotic strips as described previously ([12]). The antibiotic concentration at the point where the inhibition zone intersected the strip was taken as the MIC value. The antibiotic susceptibilities of E. faecium LMGT 2783, MUT_130 to MUT_132, MUT_136 to MUT_139, and MUT_140 and MUT_141 were tested in ISO-BHI medium (Oxoid) supplemented with 5 μg/mL Em when appropriate, while those of E. faecium MUT_142 to MUT_149 were tested in CM17 medium supplemented with 5 μg/mL Em. To study the effects of NaCl and sodium dodecyl sulfate (SDS) on bacterial growth, saturated overnight cultures of E. faecium were used for inoculation at a dilution of 1:100 in BHI medium with serial dilutions of these compounds at concentrations of 0.5 to 10% (wt/vol) and 3.0 × 10^−2 to 2.5 × 10^−3% (wt/vol), respectively. […]

[13] = system: E. faecium MUT_132; test: Effect of SDS on bacterial growth (Bioscreen); assay type: cell-based, Enterococcus faecium
Procedure: as §2

[14] = system: E. faecium MUT_147 (ΔliaFSR ΔliaX pGhost9 empty vector); test: MIC50, microtiter plates with serial 2-fold dilutions; assay type: cell-based, Enterococcus faecium; settings: microtiter 2-fold dilutions, at least 50% growth reduction, CM17 + 5 μg/mL Em, mean of three biological replicates
Procedure: as §1

[15] = system: E. faecium LMGT 2783 (WT); test: as above; assay type: cell-based, Enterococcus faecium; settings: lowest concentration reducing visible growth by at least 50%, ISO-BHI medium, mean of three biological replicates
Procedure: as §1

[16] = system: E. faecium MUT_144 (ΔliaFSR pGh:PptcB:liaS); test: as above; assay type: cell-based, Enterococcus faecium; settings: microtiter 2-fold dilutions, at least 50% growth reduction, CM17 + 5 μg/mL Em, mean of three biological replicates
Procedure: as §1

[17] = system: E. faecium MUT_146 (ΔliaFSR pGh:PptcB:liaSR); test: as above; assay type: cell-based, Enterococcus faecium; settings: microtiter 2-fold dilutions, at least 50% growth reduction, CM17 + 5 μg/mL Em, mean of three biological replicates
Procedure: as §1

[18] = system: E. faecium MUT_145 (ΔliaFSR pGh:PptcB:liaR); test: as above; assay type: cell-based, Enterococcus faecium; settings: microtiter 2-fold dilutions, at least 50% growth reduction, CM17 + 5 μg/mL Em, mean of three biological replicates
Procedure: as §1

[19] = system: E. faecium MUT_148 (ΔliaFSR ΔliaX pGh:PptcB:liaS); test: as above; assay type: cell-based, Enterococcus faecium; settings: microtiter 2-fold dilutions, at least 50% growth reduction, CM17 + 5 μg/mL Em, mean of three biological replicates
Procedure: as §1

[20] = system: E. faecium MUT_149 (ΔliaFSR ΔliaX pGh:PptcB:liaR); test: as above; assay type: cell-based, Enterococcus faecium; settings: microtiter 2-fold dilutions, at least 50% growth reduction, CM17 + 5 μg/mL Em, mean of three biological replicates
Procedure: as §1

[21] = system: E. faecium MUT_143 (ΔliaFSR pGhost9 empty vector); test: as above; assay type: cell-based, Enterococcus faecium; settings: microtiter 2-fold dilutions, at least 50% growth reduction, CM17 + 5 μg/mL Em, mean of three biological replicates
Procedure: as §1

[22] = system: E. faecium MUT_150 (ΔliaFSR ΔliaX pGh:PptcB:liaSR); test: as above; assay type: cell-based, Enterococcus faecium; settings: microtiter 2-fold dilutions, at least 50% growth reduction, CM17 + 5 μg/mL Em, mean of three biological replicates
Procedure: as §1

[23] = LMGT 2783, WT, agar plates with antibiotic strips, point where inhibition zone intersects strip, ISO-BHI medium, mean of three biological replicates
[24] = four mutants MUT_132, MUT_136, MUT_137, MUT_138, span over the mutants

Row | Compound | Effect of the deletions on sensitivity (in words) [10] | MIC50 [14] | MIC50 [15] | MIC50 [16] | MIC50 [17] | MIC50 [18] | MIC50 [19] | MIC50 [20] | MIC50 [21] | MIC50 [22] | other results
1 | CCCCCCCCCC(=O)N[C@@H](Cc1c[nH]c2ccccc12)C(=O)N[C@H](CC(N)=O)C(=O)N[C@@H](CC(=O)O)C(=O)N[C@@H]1C(=O)NCC(=O)N[C@@H](CCCN)C(=O)N[C@@H](CC(=O)O)C(=O)N[C@H](C)C(=O)N[C@@H](CC(=O)O)C(=O)NCC(=O)N[C@H](CO)C(=O)N[C@@H]([C@H](C)CC(=O)O)C(=O)N[C@@H](CC(=O)c2ccccc2N)C(=O)O[C@@H]1C [DAP, daptomycin] | – | – | – | – | – | – | – | – | – | – | MIC [1]: 0.38 µg/mL; MIC [2]: 0.38 µg/mL; MIC [3]: 3 µg/mL; MIC [4]: 6 µg/mL; MIC [5]: 0.38 µg/mL; MIC [6]: 12 µg/mL; MIC [7]: 0.38 µg/mL; MIC [8]: 8 µg/mL; DAP MIC of the BHT-B-resistant mutants ([9]; BHT-B-resistant mutants obtained, antibiotic strips): ≤ 8 µg/mL; Fold increase in sensitivity relative to WT [10]: 48 fold; MIC [11, 23]: 3 µg/mL (≈ 1.85 µM)
2 | CNC(C)C1CCC(N)C(OC2C(N)CC(N)C(OC3OCC(C)(O)C(NC)C3O)C2O)O1 (stereo not shown) [GEN, gentamicin] | unaffected | – | – | – | – | – | – | – | – | – | Fold-lower sensitivity than that of WT E. faecium ([9]; {}): 2-8 fold; MIC ([11]; Enterococcus faecium): 4 µg/mL (≈ 8.38 µM)
3 | NC[C@H]1O[C@H](O[C@H]2[C@H](O)[C@@H](O[C@H]3O[C@H](CO)[C@@H](O)[C@H](N)[C@H]3O)[C@H](N)C[C@@H]2N)[C@H](O)[C@@H](O)[C@@H]1O [KAN, kanamycin] | unaffected | – | – | – | – | – | – | – | – | – | MIC [1]: 32 µg/mL; MIC [2]: 32 µg/mL; MIC [3]: 64 µg/mL; MIC [4]: 64 µg/mL; MIC [5]: 32 µg/mL; MIC [6]: 128 µg/mL; MIC [7]: 32 µg/mL; MIC [8]: 128 µg/mL; MIC [11, 23]: 32 µg/mL (≈ 66 µM)
4 | [Cl-].[Na+] [NaCl] | – | – | – | – | – | – | – | – | – | – | MIC50 [12]: 6%
5 | CCCCCCCCCCCCOS(=O)(=O)[O-].[Na+] [SDS, sodium dodecyl sulfate] | – | – | – | – | – | – | – | – | – | – | MIC50 ([13]; MUT_132, BHI, 37°C, 24 h, Bioscreen C, lowest concentration (wt/vol) with at least 50% growth inhibition, at least triplicate): 0.005%; Fold increase in susceptibility ([13]; MUT_132 compared with the other strains): 2 fold; MIC50 [12]: 0.01%
6 | bacitracin | – | – | – | – | – | – | – | – | – | – | MIC [1]: 16 µg/mL; MIC [2]: 24 µg/mL; MIC [3]: 16 µg/mL; MIC [4]: 24 µg/mL; MIC [5]: 16 µg/mL; MIC [6]: 16 µg/mL; MIC [7]: 24 µg/mL; MIC [8]: 24 µg/mL; MIC [11, 23]: 32 µg/mL
7 | enterocin 7 [Ent7] | – | 0.4 µg/mL | 1.6 µg/mL | 0.4 µg/mL | 1.6 µg/mL | 1.6 µg/mL | 0.4 µg/mL | 1.6 µg/mL | 0.4 µg/mL | 1.6 µg/mL | –
8 | enterocin L50 [EntL50] | – | 0.4 µg/mL | 1.6 µg/mL | 0.4 µg/mL | 1.6 µg/mL | 1.6 µg/mL | 0.4 µg/mL | 3.2 µg/mL | 0.4 µg/mL | 3.2 µg/mL | –
9 | gramicidin | unaffected | 0.006 µg/mL | 0.006 µg/mL | 0.006 µg/mL | 0.047 µg/mL | 0.047 µg/mL | 0.006 µg/mL | 0.047 µg/mL | 0.006 µg/mL | 0.047 µg/mL | –
10 | nisin (ITSISLCTPGCKTGALMGCNMKTATCHCSIHVSK; not fully specified (some residues, bridges); cysteine pairing not given here; also: lantibiotic; UniProt P13068 24-57, looked up) [lantibiotic bacteriocin, ≥900 IU/mg, Glentham Life Sciences] | – | 8 µg/mL | 125 µg/mL | 8 µg/mL | 16 µg/mL | 16 µg/mL | 8 µg/mL | 16 µg/mL | 8 µg/mL | 16 µg/mL | Fold-lower sensitivity than that of WT E. faecium [9, 24]: no more than 4 fold; Fold increase in sensitivity relative to WT [10]: 16 fold
11 | ramoplanin | unaffected | 0.3 µg/mL | 0.4 µg/mL | 0.3 µg/mL | 0.3 µg/mL | 0.3 µg/mL | 0.3 µg/mL | 0.6 µg/mL | 0.3 µg/mL | 0.6 µg/mL | –
12 | salivaricin C [SalC] | – | 12.5 µg/mL | 25 µg/mL | 12.5 µg/mL | 50 µg/mL | 50 µg/mL | 12.5 µg/mL | 50 µg/mL | 12.5 µg/mL | 50 µg/mL | Fold-lower sensitivity than that of WT E. faecium [9, 24]: no more than 4 fold
13 | weissellicin M [WelM] | unaffected | 6.3 µg/mL | 6.3 µg/mL | 6.3 µg/mL | 25 µg/mL | 25 µg/mL | 6.3 µg/mL | 50 µg/mL | 6.3 µg/mL | 50 µg/mL | –
